# Assay results taken from patent US20200281897A1, “INDAZOLE DERIVATIVES FOR CANCER TREATMENT” (Servicio Andaluz de Salud, priority 2016, published 2020).
# What was measured:
# Type in all cases: cell-based, human
# U266 = test: MTT cell viability assay, myeloma cell line U266; conditions: U266, MTT, 18 hours, doses 0-50 μM; read-out: IC50, cell viability
# Procedure: (§1) In vitro studies were carried out using six different human MM cell lines, U266, RPMI8226, MM1S, MM1R, U266-LR7, and RPMI-LR5. For ex vivo assays, human primary cells from healthy donors and MM patients were used (Table 1). Human MM cell lines U266, RPMI8226, and MM1.S were acquired from ATCC and lines U266-LR7, RPMI-LR5, and MM1.R were kindly provided by Dr. Enrique Ocio (Hospital Universitario de Salamanca, Spain). The primary cells were obtained from bone marrow (BM) aspirates or peripheral blood (PB) samples, and the peripheral blood mononuclear cells (PBMCs) were isolated by Ficoll-Hypaque centrifugation and washed twice in phosphate buffered saline (PBS) containing 1% BSA. Hematopoietic stem cells and B and T lymphocytes were isolated from healthy PB donors by positive immunomagnetic separation using human MACS CD34+, CD19+, and CD3+ microbeads, respectively. MM plasma cells were obtained from the bone marrow (BM) of patients with an infiltration of cells of more than 30% (Table 1). The MM plasma cells were identified using CD138+, and were then distinguished from the other cell populations by flow cytometry using a suitable combination of antibodies: anti-human CD64-FITC, CD34-PE, CD56-APC, CD38-APC-H7, and CD45-Pacific Blue antibodies (BD Biosciences, San Jose, Calif.). All the cell lines were cultured in RPMI-1640 supplemented with 10% fetal bovine serum (FBS) and 1% penicillin/streptomycin, as recommended by the supplier. For human primary cells, the concentration of FBS was up to 20%.
# (§2) The MM cell lines and primary cells were exposed to different doses of indazole compounds, and viability was evaluated at 18, 48, and 72 hours. Pretreatments with the ceramide synthesis inhibitor (FB1), pan-caspase (ZVAD-FMK), and CB antagonists (PGN-8, PGN-37, and PGN-70) were performed for 30 minutes, and then the cells were incubated with indazole compound WIN-55 up to 18 hours. Cell viability was determined using the MTT assay Cell Counting Kit-8 (Dojindo, Kumamoto, Japan) according to the manufacturer's instructions.
# HL60 = test: Mitochondrial damage and ER stress in HL60 cells; conditions: HL60, 50 μM, 15 and 30 minutes
# Procedure: The controls that are untreated and the cells (10^6 cells per assay) treated with WIN-55,212-2 (50 μM) for 15 and 30 minutes at 37° C. were stained with 5 μM MitoSOX probe [Molecular Probes (Invitrogen)] to detect the mitochondrial superoxide. The MitoSOX signal was detected by flow cytometry.
# The detailed methodology for analyzing mitochondrial membrane potential (APm), Western Blot analysis, and immunocytofluorescence analysis has been described elsewhere 29
# [1] = system: myeloma plasma cells (MPCs, CD38+); test: Ex vivo viability of myeloma plasma cells of MM patients by flow cytometry; conditions: 18 hours, six MM patients
# Procedure: In vitro studies were carried out using six different human MM cell lines, U266, RPMI8226, MM1S, MM1R, U266-LR7, and RPMI-LR5. For ex vivo assays, human primary cells from healthy donors and MM patients were used (Table 1). Human MM cell lines U266, RPMI8226, and MM1.S were acquired from ATCC and lines U266-LR7, RPMI-LR5, and MM1.R were kindly provided by Dr. Enrique Ocio (Hospital Universitario de Salamanca, Spain). The primary cells were obtained from bone marrow (BM) aspirates or peripheral blood (PB) samples, and the peripheral blood mononuclear cells (PBMCs) were isolated by Ficoll-Hypaque centrifugation and washed twice in phosphate buffered saline (PBS) containing 1% BSA. […]
# The cell viability of the MM cell lines and primary cells from healthy PB donors was also evaluated by flow cytometry using 7-AAD/Annexin V. Patient bone marrow (BM) cells were analyzed using 7-AAD with a combination of monoclonal antibodies against myeloma-associated antigens (anti-CD56-APC, anti-CD45-Pacific Blue, and anti-CD38-APC-H7 [BD Biosciences]) and antibodies for distinguishing the granulomonocytic population (anti-CD64-FITC) and lymphocytic population (anti-CD45-Pacific Blue). The cells were acquired by means of FACSCanto II flow cytometer (BD Biosciences) and analyzed using Infinicyt™ Software (Cytognos, Spain).
# RPMI8226 = test: MTT cell viability assay, myeloma cell line RPMI; conditions: RPMI, MTT, 18 hours, doses 0-50 μM; read-out: IC50, cell viability
# Procedure: as §1, §2
# NB-4 = test: WST-1 cell viability assay, NB-4; conditions: NB-4, 18 hours
# Procedure: U937, NB-4, KG-1, and MOLM-13 (DMSZ, Braunschweig, Germany) were cultured in complete RPMI 1640 medium (with 2 mM of L-glutamine, 100 mg of penicillin, 100 μg/ml of streptomycin, and with 10% FBS), supplemented with 10 mM HEPES, 1×NaPuvuvato, and 1× non-essential amino acids.
# The cell lines and primary cells were cultured in 96-well plates (5×10e5 cells per well) with the addition of the indicated concentrations of WIN 55,212-2 or PGN cannabinoids in DMSO or with the solvent only in triplicate at 18, 48, and 72 hours. Caspase inhibitor Z-VAD (OMe)-FMK or the CB2 receptor antagonist PGN-8, -37, and -70, together with the cannabinoid WIN-55,212-2, were also added. Cell viability was determined by means of the WST-1 assay [2-(4-iodophenyl)-3-(4-nitrophenyl)-5-(2,4-disulfophenyl)-2H-tetrazolium] according to the manufacturer's instructions (Dojindo Molecular Technologies). Optical densities were measured at 450 nm using a Multiskan™ Go Microplate plate reader (Thermo Fisher Scientific, Waltham, Mass., USA).
# Now it will be analyzed whether the exposure to cannabinoids had any effect on the viability of the tumor cells in vitro. […]
# U266-LR7 = test: MTT cell viability assay, myeloma cell line U266-LR7; conditions: U266-LR7, MTT, 18 hours, doses 0-50 μM; read-out: IC50, cell viability
# Procedure: as §1, §2
compound,measurement,setting,value
"CS(=O)(=O)O.Cc1c(C(=O)c2cccc3ccccc23)c2cccc3c2n1[C@H](CN1CCOCC1)CO3 [WIN-55, (R)-(+)-[2,3-dihydro-5-methyl-3-(4-morpholinomethyl)-pyrrolo[1,2,3]-1,4-benzoxazin-6-yl]-1-naphthalenylmethanone mesylate]",IC50,U266,17.2 µM
same,mitochondrial damage and ER stress,HL60,early mitochondrial damage and ER stress
same,decrease in cell viability of MPCs (CD38+),[1]; 20 μM,70%
same,decrease in cell viability of MPCs (CD38+),[1]; 50 μM,85%
same,IC50,RPMI8226,11.7 µM
same,% viable cells at 50 μM,NB-4,49.1%
same,IC50,NB-4,25.1 µM
same,IC50,U266-LR7,17.2 µM
